For 21 compounds, IC50 and hypotensive activities results are on record in patent US5424309A, “N-substituted acylamino acid compounds, process for their production and their use” (Banyu Pharmaceutical Co., Ltd., priority 1988, dated 1995).

The target of one assay is T1, human plasma renin (Homo sapiens, UniProt P00797).
T1 construct: from tissue; host or cells: human plasma
T1 sequence (P00797 67-406): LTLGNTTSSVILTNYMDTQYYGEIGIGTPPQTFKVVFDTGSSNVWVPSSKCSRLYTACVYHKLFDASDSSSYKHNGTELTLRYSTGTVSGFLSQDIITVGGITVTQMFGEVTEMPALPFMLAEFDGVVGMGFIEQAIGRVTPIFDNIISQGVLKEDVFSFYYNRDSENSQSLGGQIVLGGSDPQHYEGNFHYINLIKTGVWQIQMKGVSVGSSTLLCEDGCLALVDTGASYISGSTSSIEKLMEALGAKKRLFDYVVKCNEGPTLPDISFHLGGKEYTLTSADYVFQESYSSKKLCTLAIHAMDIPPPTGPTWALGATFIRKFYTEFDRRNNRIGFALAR
In words: Renin inhibiting activities (human plasma, angiotensin I by radio immunoassay). The assay is classed as biochemical. The settings on record: pH7.4, 37° C., one hour, read-out: IC50 (50 % inhibition concentrations), renin inhibiting activity. How it is done: To 156 μl of a 0.2M sodium phosphate buffer solution (pH7.4), 40 μl of a solution mixture of 34 mM 8-hydroxyquinoline and 100 mM disodium ethylenediamine tetraacetate, 4 μl of dimethyl sulfoxide or a dimethyl sulfoxide solution of test compound and 200 μl of human plasma were added and reacted at 37° C. for one hour. Then, pepstatin was added thereto to terminate the reaction, and the amount of the resulting angiotension I was measured by radio immunoassay whereby the inhibiting activity was determined.
`CCCC[C@H](NC(=O)[C@H](Cc1cccc2ccccc12)CS(=O)(=O)CC(COC(C)=O)OC(C)=O)C(=O)N[C@@H](CC1CCCCC1)[C@@H](O)[C@@H](O)CN1CCOCC1` (mixture of isomers) [Example 1, (2S, 3R, 4S)-4-{L-N-[(2S)-3-[(2RS)-2,3-diacetoxypropyl]sulfonyl-2-(1-naphthylmethyl)propionyl]norleucyl}amino-5-cyclohexyl-1-morpholino-2,3-pentanediol]: the IC50 is 2.5 nM.
Consider `CCCC[C@H](NC(=O)[C@H](Cc1cccc2ccccc12)CS(=O)(=O)C1CCC(OC(C)=O)C1)C(=O)N[C@@H](CC1CCCCC1)[C@@H](O)[C@@H](O)CN1CCOCC1` (single isomer, unassigned) [Example 33 (having a high Rf value)], for which the IC50 is 2.2 nM.
Same read-out and setting: then `CCCC[C@H](NC(=O)[C@H](Cc1cccc2ccccc12)CS(=O)(=O)C1CCC(OC(C)=O)C1)C(=O)N[C@@H](CC1CCCCC1)[C@@H](O)[C@@H](O)CN1CCOCC1` (single isomer, unassigned) [Example 33 (having a low Rf value)], with 1.1 nM; and `CCCC[C@H](NC(=O)[C@H](Cc1cccc2ccccc12)CS(=O)(=O)CC(COC(C)=O)OC)C(=O)N[C@@H](CC1CCCCC1)[C@@H](O)[C@@H](O)CN1CCOCC1` (single isomer, unassigned) [Example 39], with 1.3 nM.
For `CCCC[C@H](NC(=O)[C@H](Cc1cccc2ccccc12)CS(=O)(=O)CC(COC(C)=O)OC)C(=O)N[C@@H](CC1CCCCC1)[C@@H](O)[C@@H](O)CN1CCOCC1` (single isomer, unassigned) [Example 40], the IC50 was found to be 1 nM.
The same measure, in the same setting: as for `CCCC[C@H](NC(=O)[C@H](Cc1cccc2ccccc12)CS(=O)(=O)CCOC(C)=O)C(=O)N[C@@H](CC1CCCCC1)[C@@H](O)[C@@H](O)CN1CCOCC1` [Example 3, (2S,3R,4S)-4{L-N-[(2S)-3-(2-acetoxyethyl)sulfonyl-2-(1-naphthylmethyl)propionyl]norleucyl)amino-5-cyclohexyl-1-morpholino-2,3-pentanediol], the figure is 3.1 nM; as for `CCCC[C@H](NC(=O)[C@H](Cc1cccc2ccccc12)CS(=O)(=O)CCOC(=O)C(C)(C)C)C(=O)N[C@@H](CC1CCCCC1)[C@@H](O)[C@@H](O)CN1CCOCC1` [Example 4], 7.7 nM; as for `CCCC[C@H](NC(=O)[C@H](Cc1cccc2ccccc12)CS(=O)(=O)CCOC(=O)OCC)C(=O)N[C@@H](CC1CCCCC1)[C@@H](O)[C@@H](O)CN1CCOCC1` [Example 5, (2S,3R,4S)-4-{L-N-[(2S)-3-(2-ethoxycarbonyloxyethyl)sulfonyl-2-(1-naphthylmethyl)propionyl]norleucyl}amino-5-cyclohexyl-1-morpholino-2,3-pentanediol], 5 nM.
As for `CCCC[C@H](NC(=O)[C@@H](CSCC(COC(C)=O)OC(C)=O)Cc1cccc2ccccc12)C(=O)N[C@@H](CC1CCCCC1)[C@@H](O)[C@@H](O)CN1CCOCC1` (stereo partly drawn) [Example 7, (2S,3R,4S)-4-{L-N-[(2S)-3-[(2RS)-2,3,-diacetoxypropyl]thio-2-(1-naphthylmethyl)propionyl]norleucyl}amino-5-cyclohexyl-1-morpholino-2,3-pentanediol], the IC50 stood at 2.8 nM.
Take `CCCC[C@H](NC(=O)[C@H](Cc1cccc2ccccc12)CS(=O)(=O)CC(O)COC(C)=O)C(=O)N[C@@H](CC1CCCCC1)[C@@H](O)[C@@H](O)CN1CCOCC1` (stereo partly shown) [Example 11]: the IC50 stood at 6.3 nM.
With `CCCC[C@H](NC(=O)[C@@H](CSc1ccc(OC(C)=O)cc1)Cc1cccc2ccccc12)C(=O)N[C@@H](CC1CCCCC1)[C@@H](O)[C@@H](O)CN1CCOCC1` [Example 18, (2S,3R,4S)-4-{L-N-[(2S)-3-(4-acetoxyphenylthio)-2-(1-naphthylmethyl)propionyl]norleucyl}amino-5-cyclohexyl-1-morpholino-2,3-pentanediol], the IC50 is 9.2 nM.
Still for that read-out and setting: then `CC(=O)OCC(CS(=O)(=O)C[C@@H](Cc1cccc2ccccc12)C(=O)N[C@@H](Cc1c[nH]cn1)C(=O)N[C@@H](CC1CCCCC1)[C@@H](O)[C@@H](O)CN1CCOCC1)OC(C)=O` (stereo partly shown) [Example 23], with 4.8 nM; and `CC(=O)OCCS(=O)(=O)C[C@@H](Cc1cccc2ccccc12)C(=O)N[C@@H](Cc1c[nH]cn1)C(=O)N[C@@H](CC1CCCCC1)[C@@H](O)[C@@H](O)CN1CCOCC1` [Example 30], with 1.9 nM.
The same measure, in the same setting: then `CCCC[C@H](NC(=O)[C@@H](CSC1CCC(OC(C)=O)C1)Cc1cccc2ccccc12)C(=O)N[C@@H](CC1CCCCC1)[C@@H](O)[C@@H](O)CN1CCOCC1` (stereo partly drawn) [Example 34, (2S,3R,4S)-4-{L-N-[(2S)-3-(3-acetoxycyclopentyl)thio-2-(1-naphthylmethyl)propionyl]norleucyl}amino-5-cyclohexyl-1-morpholino-2,3-pentanediol], with 5.6 nM.
On to `CCCC[C@H](NC(=O)[C@H](Cc1cccc2ccccc12)CS(=O)(=O)C1CCCC1OC(C)=O)C(=O)N[C@@H](CC1CCCCC1)[C@@H](O)[C@@H](O)CN1CCOCC1` (stereo partly drawn) [Example 35, (2S,3R,4S)-4-{L-N-[(2S)-3-(2-acetoxycyclopentyl)sulfonyl-2-(1-naphthylmethyl)propionyl]norleucyl}amino-5-cyclohexyl-1-morpholino-2,3-pentanediol], for which the IC50 was determined as 3.1 nM.
The same measure, in the same setting: as for `CCCC[C@H](NC(=O)[C@H](Cc1cccc2ccccc12)CS(=O)(=O)C1CCC(OC(C)=O)C1OC(C)=O)C(=O)N[C@@H](CC1CCCCC1)[C@@H](O)[C@@H](O)CN1CCOCC1` (stereo partly drawn) [Example 36, (2S,3R,4S),4-{L-N-[(2S)-3-(2,3-diacetoxycyclopentyl)sulfonyl-2-(1-naphthylmethyl)propionyl]norleucyl}amino-5-cyclohexyl-1-morpholino-2,3-pentanediol], the figure is 1.9 nM; as for `CCCC[C@H](NC(=O)[C@H](Cc1cccc2ccccc12)CS(=O)(=O)C1C(OC(C)=O)CCC1OC(C)=O)C(=O)N[C@@H](CC1CCCCC1)[C@@H](O)[C@@H](O)CN1CCOCC1` (stereo partly drawn) [Example 37, (2S,3R,4S)-4-{L-N-[(2S)-3-(2,5-diacetoxycyclopentyl)sulfonyl-2-(1-naphthylmethyl)propionyl]norleucyl}amino-5-cyclohexyl-1-morpholino-2,3-pentanediol], 2.9 nM.
Same read-out and setting: as for `CCCC[C@H](NC(=O)[C@H](Cc1cccc2ccccc12)CS(=O)(=O)CC(COC(C)=O)=NOC)C(=O)N[C@@H](CC1CCCCC1)[C@@H](O)[C@@H](O)CN1CCOCC1` [Example 41, (2S,3R,4S)-4-{L-N-[(2S)-3-(3-acetoxy-2-methoxyiminopropyl)sulfonyl-2-(1-naphthylmethyl)propionyl]norleucyl}amino-5-cyclohexyl-1-morpholino-2,3-pentanediol], the figure is 0.79 nM.
Same read-out and setting: then `CCCC[C@H](NC(=O)[C@H](Cc1cccc2ccccc12)CS(=O)(=O)CC(COC(C)=O)=NO)C(=O)N[C@@H](CC1CCCCC1)[C@@H](O)[C@@H](O)CN1CCOCC1` [Example 42, (2S,3R,4S)-4-{L-N-[(2S)-3-(3-acetoxy-2-hydroxyiminopropyl)sulfonyl-2-(1-naphthylmethyl)propionyl]norleucyl}amino-5-cyclohexyl-1-morpholino-2,3-pentanediol], with 6.1 nM.
Regarding `COC(COC(C)=O)CS(=O)(=O)C[C@@H](Cc1cccc2ccccc12)C(=O)N[C@@H](Cc1cscn1)C(=O)N[C@@H](CC1CCCCC1)[C@@H](O)[C@@H](O)CN1CCOCC1` (stereo partly drawn) [Example 44, (2S,3R,4S)-4-{L,N-[(2S)-3-[(2RS)-3-acetoxy-2-methoxypropyl]sulfonyl-2-(1-naphthylmethyl)propionyl]-(4-thiazolyl)alanyl}amino-5-cyclohexyl-1-morpholino-2,3-pentanediol], the IC50 amounted to 1.8 nM.
On the same count and under the same terms, as for `CCCC[C@H](NC(=O)[C@H](Cc1cccc2ccccc12)CS(=O)(=O)CC(COC(C)=O)(OCC)OCC)C(=O)N[C@@H](CC1CCCCC1)[C@@H](O)[C@@H](O)CN1CCOCC1` [Example 48, (2S,3R,4S)-4-{L-N-[(2S)-3-(3-acetoxy-2,2-diethoxypropyl)sulfonyl-2-(1-naphthylmethyl)propionyl]norleucyl}amino-5-cyclohexyl-1-morpholino-2,3-pentanediol], the figure is 3.9 nM.

A further assay has as its system marmosets. In words: Hypotensive activities in monkeys (furosemide-treated marmosets, oral administration). The assay is classed as in vivo. The note with it: 30 mg/kg orally; three marmosets; furosemide 30 mg/kg pretreatment (high renin active state); FIG. 1. How it is done: The hypotensive activities were measured in accordance with a method disclosed in J. Cardiovascular Pharmacology, Vol. 7, (Suppl. 4) S58-61 (1985). Namely, 30 mg/kg of furosemide (diuretic) was intracutaneously injected to three marmosets i.e. small size monkeys to produce a high renin active state. To these marmosets, 30 mg/kg of the compound of Example 1 was orally administered, whereupon the hypotensive activities were measured.
With `CCCC[C@H](NC(=O)[C@H](Cc1cccc2ccccc12)CS(=O)(=O)CC(COC(C)=O)OC(C)=O)C(=O)N[C@@H](CC1CCCCC1)[C@@H](O)[C@@H](O)CN1CCOCC1` (mixture of isomers) [Example 1, (2S, 3R, 4S)-4-{L-N-[(2S)-3-[(2RS)-2,3-diacetoxypropyl]sulfonyl-2-(1-naphthylmethyl)propionyl]norleucyl}amino-5-cyclohexyl-1-morpholino-2,3-pentanediol], the hypotensive activities result is reported as “exhibits hypotensive activities by the oral administration”.
